Consider one molecule from patent US20130267757A1, “ANTH[…] USE AS RADIOS[…] CANCER TREATMENT” (Sensit Science Ltd., priority 2010, published 2013).

The subject of data set [1] is U87 Tumors. The following applies: wavelength of 665 nm; with or without radiation. The protocol: U87 Tumors were resected when tumors reached end-point (1500 mm^3), minced, and digested in 4 mg/ml collagenase III, 2 mg/ml hyaluronidase, and 2 mg/ml collagenase IV in serum free DMEM, for 20 min, at 37° C. Cells were then filtered through a 40 μm sieve, and washed twice with PBS to obtain single U87 cell suspension.
The single U87 tumor cell suspensions were then acquired on Cyan ADP flow cytometer (Beckman Coulter) and analyzed with Summit (Beckman Coulter) software.
The FL8 channel, (wavelength of 655/20 nm) was used to detect differences between positive and negative cells. From each sample, at least 50,000 cells were acquired.
(§1) These studies were aimed at assessing the localization of radiosensitizing agents and were conducted by two complementary techniques; the first in implanted U87 human glioma tumors using UV lamp and the second in extracted U87 tumors using Flow Cytometry techniques.

The subject of data set [2] is MCF-7 human breast carcinoma grown as cancer stem cells spheres. Briefly: Example 2B AlamarBlue proliferation, MCF7 cancer stem cells. Format: cell-based. The protocol:
(§2) Linear cell (Lin) HT29 and MCF7 human breast carcinoma, were obtained from the American Type Culture Collection (ATCC).
(§3) Enrichment of the cancer stem cells (CSCs) population was done by incubating linear cells in a DMEM/F-12 (HAM) 1:1 medium supplement with Insulin-Transferin-Soldium Selenite, and growth factors specific for each cell line. Cells considered enriched for CSCs after 10-15 days in CSCs medium.
(§4) Three photosensitizing agents were used, Hypericin (Hy), Tetrabromo hypericin (TBrHy), and hypericin tetrasulfonic acid (HyTS) in the following concentrations: 0.1 μM, 1 μM and 2 μM. Drugs were protected from light for all time. Control cells were treated with 0.1% DMSO (vehicle).
(§5) Linear and CSC were exposed to 3 Gy irradiation daily for four consecutive days or to a single dose of 10 Gy radiation. Radiation was initiated one day after treatment with the hypericin or hypericin derivatives.
(§6) Linear and CSCs were cultured in a 96 plate in triplicates. Each cell line was treated with the three radiosensitizing agents in the indicated doses. In addition culture cells were exposure to radiation. A day before the irradiation, the radiosensitizing agents were added to the culture. Cells were allowed to grow over a period of 5 days using the method of AlamarBlue™ reduction assay. 10% Alamar Blue solution added to each well. Cells viability was measured using Eliza Reader at two different wavelengths: 570 nm and 600 nm, and the appropriate equation was calculated to reflect cell viability.
In general terms: Resazurin is reduced to fluorescent resorufin, in cell work by metabolically active cells.

For data set [3], the system named is MCF-7 human breast carcinoma. Briefly: AlamarBlue cell proliferation assay after radiosensitizer and irradiation, MCF-7 monolayer. Format: cell-based. The following applies: 1 μM. The protocol: (§7) Human breast carcinoma: MCF-7 (ATCC number: HTB-22); MDA-MB-231 (ATCC number: HTB-26)
(§8) Human colorectal cancer cell line: HT-29 (ATCC number: HTB-38). All cells were cultured routinely in DMEM supplemented with 10% FCS.
(§9) Three hypericin derivatives were used in the assay, including hypericin tetrasulfonic acid (HyTS); Tetrabromo hypericin (TBrHy); and Hexamethyl hypericin (HxMeHy). In addition, as control, hypericin and/or Photofrin II as well as cells exposed only to radiation, i.e. without a radiosensitizing agent.
(§10) The hypericin, hypericin derivatives and photofrin II were used in doses ranging from 0.1 μM up to 2 μM. All compounds were dissolved in DMSO, and were protected from light.
(§11) In all cases, control and tumor cells were exposed to ionizing radiation (Siemens X-ray device with 250 kV or with LINAC) at 24 h after the incubation with Hyperecin, Photofrin II or Hypericin derivatives indicated below. The total delivered radiation dose was a 10 Gy, provided in a single irradiation session on the second day of culture. The response of the tumor to the radiation treatment was evaluated by determining growth delay using the described cell proliferation assay. […]
(§12) Unless indicated otherwise, the tumor cell lines were cultured at a starting density of 1×10^5 cells/mL in DMEM and 10% FCS. […] Absorbance was measured at 570 nm and 600 nm using a micro-titer plate reader. […]

Data set [4] relates to MD-MB-231-human breast carcinoma. As to the kind of experiment: AlamarBlue cell proliferation assay after radiosensitizer and irradiation, MDA-MB-231. Format: cell-based. The settings on record: 1 μM; FIG. 4C, P<0.05. The protocol:
as §7, §8, §9, §10, §11, §12

Data set [5] concerns HT29-colon cancer grown in monolayer. As to the kind of experiment: Example 2B AlamarBlue proliferation, HT29 linear cells. Format: cell-based, human. The settings on record: 0.1-2 μM; single dose 10 Gy; FIG. 6A. The protocol: as §2
(§13) Cells were cultured in Dulbecco's Modified Eagle Medium (DMEM), supplemented with 10% fetal calf serum (FCS) and antibiotics.
as §4, §5, §6

The next data set deals with U87 human glioma tumors. The following applies: 10 mg/kg + 10 Gy radiation; CB.17 SCID mice; FIG. 8A. The protocol:
U87 human glioma cells at a concentration of 5×10^6 were implanted into the flank of eight to ten weeks old CB.17 SCID mice (n=4-5 mice per group).
Treatment was initiated when the tumors reached a size of 100-150 mm^3, and included the following treatment groups:
Specifically, mice were injected with the radiosensitizing agent, and immediately placed in the dark. Radiation was initiated two hours after radiosensitizing administration. Mice were kept in the dark for the following 72 hours, in order to minimize the effect of light on the traces of the radiosensitizing agents. Tumor volume was monitored prior to treatment and thereafter twice weekly.

Data set [6] concerns HT29-colon cancer grown as cancer stem cells spheres. As to the kind of experiment: Example 2B AlamarBlue proliferation, HT29 cancer stem cells. Format: cell-based, human. The following applies: 0.1-2 μM; single dose 10 Gy; FIG. 6B; compared with monolayer. The protocol:
as §2, §3, §4, §5
Linear and CSCs were cultured in a 96 plate in triplicates. Each cell line was treated with the three radiosensitizing agents in the indicated doses. In addition culture cells were exposure to radiation. A day before the irradiation, the radiosensitizing agents were added to the culture. […] Cells viability was measured using Eliza Reader at two different wavelengths: 570 nm and 600 nm, and the appropriate equation was calculated to reflect cell viability.

The subject of data set [7] is MCF-7 human breast carcinoma grown as monolayer. As to the kind of experiment: Example 2B AlamarBlue proliferation, MCF7 linear cells. Format: cell-based. The settings on record: 0.1-2 μM; single dose 10 Gy; FIG. 6C. The protocol:
as §2, §13, §4, §5, §6

Data set [8] concerns U87 Tumors. The settings on record: during the 2 hours prior to radiation. The protocol: U87 Tumors were implanted subcutaneously in nude mice and then examined under a UV light lamp and the colour intensity was visualized.
as §1

For data set [9], the system named is PANC01 human pancreatic adenocarcinoma cells. Briefly: PANC01 human pancreatic adenocarcinoma tumors in CB.17 SCID mice, tumor volume (Example 4C). Format: in vivo. The settings on record: 10 mg/kg + 10 Gy radiation. The protocol:
Mice were injected with the radiosensitizing agent, and immediately after were placed in the dark. Radiation was conducted 2 hours after radiosensitizing administration. […] Tumor volume was measured prior to the treatment and thereafter twice weekly.

The conditions of data set [10]: brain sections of treated mice, fluorescence 550-650 nm.
A short description of data set [11]: Treatment toxicity: body weight and overall behaviour (Example 4A). Format: in vivo, nude mice. The following applies: 10 mg/kg. The protocol: Mice injected with 5% DMSO vehicle served as the control untreated group. Immediately after the injections, the mice were placed in the dark. For each group of radiosensitizing agent treated mice, half of the treated mice were then treated with a 10 Gy dose of radiation, initiated two hours after the administration of the radiosensitizing agents.
Treatment toxicity was evaluated using two parameters, (i) measuring mice's body weight and (ii) monitoring overall mice behaviour, both parameters were measured twice weekly.

For data set [12], the system named is HT29-human colon carcinoma. Briefly: AlamarBlue cell proliferation assay after radiosensitizer and irradiation, HT29. Format: cell-based. The following applies: 1 μM; FIG. 4E, P<0.05. The protocol: as §8, §9, §10
In all cases, control and tumor cells were exposed to ionizing radiation (Siemens X-ray device with 250 kV or with LINAC) at 24 h after the incubation with Hyperecin, Photofrin II or Hypericin derivatives indicated below. The total delivered radiation dose was a 10 Gy, provided in a single irradiation session on the second day of culture. The response of the tumor to the radiation treatment was evaluated by determining growth delay using the described cell proliferation assay.
Cell proliferation assay using AlamarBlue
as §12

In the case of `Cc1c(S(=O)(=O)O)c(O)c2c(=O)c3c(O)c(S(=O)(=O)O)c(O)c4c5c(O)c(S(=O)(=O)O)c(O)c6c(=O)c7c(O)c(S(=O)(=O)O)c(C)c8c1c2c(c34)c(c78)c65` [HyTS, hypericin tetrasulfonic acid], the “fluorescent signal of tumor cells by flow cytometry” value in the data set with U87 Tumors [1] is on record as “fluorescent signal was detected”. For the same molecule, the “inhibiting proliferation of MCF7 human breast cancer cells grown as stem cells” value in [2] (0.1-2 μM, single dose 10 Gy, FIG. 6D) was “effective in inhibiting the proliferation”. Also, in [2] (FIGS. 6C and 6D), the “effect in MCF7 cancer stem cells compared with monolayer” value is given as “more pronounced”. Besides, the “radiosensitizing effect on breast cancer MCF-7 (proliferation on day 5)” value in data set [3] (FIG. 4D, P<0.01) is listed as “statistically significantly effective”. Also, in data set [3] (irradiation 10 Gy, 5 days post radiation, FIG. 3C, P<0.03), the “proliferation of MCF-7 breast cancer cells grown as monolayer (AlamarBlue, fold increase)” value is “statistically inhibited the proliferation”. For the same molecule, in [4], the “radiosensitizing effect on breast cancer MD-MB-231 (proliferation on day 5)” value was “statistically significantly effective”. Moreover, the “radiosensitizing HT-29 colon cancer cells (monolayer)” value in data set [5] is “effective in radiosensitizing”. For the same molecule, in the data set with U87 human glioma tumors, the “tumor volume of U87 tumors, agent with radiation” value is given as “anti-tumor activity”. For the same molecule, in data set [6], the “sensitivity of HT-29 colon cancer stem cells to treatment” value was “more sensitive”. Besides, the “inhibiting proliferation of MCF7 human breast cancer cells grown as monolayer” value in [7] was “effective in inhibiting the proliferation”. For the same molecule, in the data set on U87 Tumors [8], the “colour of tumors under UV light” value is “colored in red”. Further, the “anti-tumor activity in PANC1 pancreatic tumors compared with U87” value in data set [9] is on record as “somewhat better activity”. Also, the “tumor volume of PANC1 pancreatic tumors, agent with radiation” value in data set [9] (CB.17 SCID mice, FIG. 8B) is listed as “anti-tumor activity”. In addition, the BBB penetration result in data set [10] was “does not penetrate the BBB”. Further, the tolerability of treatment result in data set [11] (alone or in combination with radiation, nude mice) is reported as “well tolerated”. Further, the “change in mice body weight and mice behaviour” value in [11] (measured twice weekly) is “no significant change”. Moreover, in data set [12], the “radiosensitizing effect on colon cancer HT29 (proliferation on day 5)” value is on record as “effective radiosensitizing agents”.
